Literature values, collected in article PMC3559838 (PLoS ONE, 2013).

How the values were obtained:
[1] = set-up: method as in Investigator's Brochure, 2004; conditions: dogs, ref Investigator's Brochure, 2004, cited from earlier work
[2] = test system: CYP2C8; set-up: method as in protocol pharmaceutical information; conditions: ref protocol pharmaceutical information; cited from earlier work
[3] = human, in vivo; cited from earlier work
[4] = test system: five major cytochrome P450 enzymes; conditions: cited from earlier work

For `O=C(/C=C/c1cccc(S(=O)(=O)Nc2ccccc2)c1)NO` [Belinostat, N-hydroxy-3-(phenylsulphamoylphenyl) acrylamide], the “systemic and local irritation adverse events (lymphopenia, lymphoid atrophy, injection site reactions)” value ([1]; 50 mg/kg/day, arginine formulation) is given as “mild and fully reversible”, the “no-observable-effect-level (NOEL)” value ([1]; one study) is given as 10 mg/kg/day and the CYP2C8 inhibition [2] is given as “weak to moderate inhibitor”. The maximum tolerable dose [3] was 1200 mg/m^2 and the “inhibition of the five major cytochrome P450 enzymes” value [4] was “did not inhibit”.
